Test results: US20260256792A1, “TREATMENT OF CHRONIC SPONTANEOUS URTICARIA BY ADMINISTERING (R)-2-[3-[4-AMINO-3-(2-FLUORO-4-PHENOXY-PHENYL)PYRAZOLO[3,4-D]PYRIMIDIN-1-YL]PIPERIDINE-1-CARBONYL]-4-METHYL-4-[4-(OXETAN-3-YL)PIPERAZIN-1-YL]PENT-2-ENENITRILE” (priority 2023, published 2026)

Test system: moderate-to-severe chronic spontaneous urticaria (CSU)
Assay: Phase 2 CSU study: urticaria control test (UCT)
Assay type: in vivo, human
Set-up: key to UCT, Mean / UCT, Median / UCT change from baseline, Mean / UCT change from baseline, Median: UCT total = sum of 4 item scores; low = low disease control
Source text: The study comprises a 12 week, randomized, double-blind, placebo-controlled, multi-center, dose-ranging efficacy and safety phase, followed by a 40 week open label extension (OLE) phase (see FIG. 1). The study consists of three phases and an optional OLE phase. […] To this end, the UCT was proposed as a tertiary endpoint in this study. […] The dermatology life quality index (DLQI) was proposed as a tertiary endpoint in this study. […] Low scores indicate high disease activity and low disease control. The UCT total score is calculated by adding all 4 individual item scores. […] The recall period is the previous 4 weeks. Patients were to complete the UCT questionnaire during their site visit.

[1] = 400 mg BID, End of study, omalizumab-naïve population
[2] = 400 mg BID, End of study, prior omalizumab use incl. incomplete responders
[3] = 400 mg BID, Week 4, ITT population
[4] = 400 mg BID, Week 4, omalizumab-naïve population
[5] = 400 mg BID, Week 4, prior omalizumab use incl. incomplete responders
[6] = 400 mg BID, Week 8, ITT population
[7] = 400 mg BID, Week 8, omalizumab-naïve population
[8] = 400 mg BID, Week 8, prior omalizumab use incl. incomplete responders
[9] = 400 mg BID, Week 12, ITT population
[10] = 400 mg BID, Week 12, omalizumab-naïve population
[11] = 400 mg BID, Week 12, prior omalizumab use incl. incomplete responders
[12] = 400 mg QPM, End of study, omalizumab-naïve population
[13] = 400 mg QPM, End of study, prior omalizumab use incl. incomplete responders
[14] = 400 mg QPM, Week 4, ITT population
[15] = 400 mg QPM, Week 4, omalizumab-naïve population
[16] = 400 mg QPM, Week 4, prior omalizumab use incl. incomplete responders

`CC(C)(C=C(C#N)C(=O)N1CCC[C@@H](n2nc(-c3ccc(Oc4ccccc4)cc3F)c3c(N)ncnc32)C1)N1CCN(C2COC2)CC1` [rilzabrutinib, (R)-2-[3-[4-amino-3-(2-fluoro-4-phenoxy-phenyl)pyrazolo[3,4-d]pyrimidin-1-yl]piperidine-1-carbonyl]-4-methyl-4-[4-(oxetan-3-yl)piperazin-1-yl]pent-2-enenitrile] was tested, and the “UCT change from baseline, Mean” value [1] was 0.00, the “UCT change from baseline, Median” value [1] was −2.00 and the “UCT percent change from baseline, Mean” value [1] was −21.27%. The “UCT percent change from baseline, Median” value [1] was −57.14%, the “UCT, Median” value [1] was 3.00 and the “UCT change from baseline, Median” value [2] was 5.50. For the same compound, the “UCT percent change from baseline, Mean” value [2] was 4.33%, the “UCT percent change from baseline, Median” value [2] was 4.00% and the “UCT, Mean” value [2] was 2.67. The “UCT, Median” value [2] was 3.00, the “UCT % Change difference for rilzabrutinib vs. placebo LS Mean (95% CI)” value (“UCT % Change difference … (95% CI)” for short) [3] was 96.74 (−24.75, 218.23) % and the “UCT % Change from baseline LS Mean (SE)” value [3] was 236.29 (42.88) %. The “UCT Change difference for rilzabrutinib vs. placebo LS Mean (95% CI)” value (from here on “UCT Change difference … (95% CI)”) [3] was 0.94 (−0.87, 2.75), the “UCT Change from baseline LS Mean (SE)” value [3] was 4.27 (0.65) and the “UCT Post-baseline Mean (SD)” value [3] was 8.56 (4.95). For the same compound, the “UCT % Change difference … (95% CI)” value [4] was 120.19 (−1.20, 241.59) %, the “UCT % Change from baseline LS Mean (SE)” value [4] was 263.00 (44.80) % and the “UCT Change difference … (95% CI)” value [4] was 1.27 (−0.56, 3.11). For the same compound, the “UCT Change from baseline LS Mean (SE)” value [4] was 4.51 (0.66), the “UCT Post-baseline Mean (SD)” value [4] was 8.85 (4.53) and the “UCT change from baseline, Mean” value [4] was 4.21. For the same compound, the “UCT change from baseline, Median” value [4] was 4.00, the “UCT percent change from baseline, Mean” value [4] was 220.19% and the “UCT percent change from baseline, Median” value [4] was 75.00%. The “UCT, Mean” value [4] was 8.85, the “UCT, Median” value [4] was 9.00 and the “UCT change from baseline, Mean” value [5] was 4.33. For the same compound, the “UCT change from baseline, Median” value [5] was 4.00, the “UCT percent change from baseline, Mean” value [5] was 151.39% and the “UCT percent change from baseline, Median” value [5] was 137.50%. The “UCT, Median” value [5] was 5.50, the “UCT % Change difference … (95% CI)” value [6] was 139.58 (18.06, 261.09) % and the “UCT % Change from baseline LS Mean (SE)” value [6] was 304.12 (43.11) %. For the same compound, the “UCT Change difference … (95% CI)” value [6] was 1.01 (−0.90, 2.92), the “UCT Change from baseline LS Mean (SE)” value [6] was 5.38 (0.68) and the “UCT Post-baseline Mean (SD)” value [6] was 10.00 (4.71). The “UCT % Change difference … (95% CI)” value [7] was 158.55 (28.05, 289.04) %, the “UCT % Change from baseline LS Mean (SE)” value [7] was 328.12 (46.96) % and the “UCT Change difference … (95% CI)” value [7] was 1.14 (−0.74, 3.02). The “UCT Change from baseline LS Mean (SE)” value [7] was 5.61 (0.69), the “UCT Post-baseline Mean (SD)” value [7] was 10.12 (4.20) and the “UCT change from baseline, Mean” value [7] was 5.70. The “UCT change from baseline, Median” value [7] was 5.00, the “UCT percent change from baseline, Mean” value [7] was 290.62% and the “UCT percent change from baseline, Median” value [7] was 114.29%. The “UCT change from baseline, Median” value [8] was 11.00, the “UCT percent change from baseline, Mean” value [8] was 248.33% and the “UCT percent change from baseline, Median” value [8] was 275.00%. The “UCT, Mean” value [8] was 9.20, the “UCT, Median” value [8] was 14.00 and the “UCT % Change difference … (95% CI)” value [9] was 109.34 (−24.34, 243.02) %. For the same compound, the “UCT % Change from baseline LS Mean (SE)” value [9] was 309.12 (47.68) %, the “UCT Change difference … (95% CI)” value [9] was 0.71 (−1.27, 2.68) and the “UCT Change from baseline LS Mean (SE)” value [9] was 5.44 (0.71). For the same compound, the “UCT Post-baseline Mean (SD)” value [9] was 9.92 (4.69), the “UCT % Change difference … (95% CI)” value [10] was 146.79 (5.56, 288.02) % and the “UCT % Change from baseline LS Mean (SE)” value [10] was 344.03 (53.11) %. For the same compound, the “UCT Change difference … (95% CI)” value [10] was 0.80 (−1.21, 2.81), the “UCT Change from baseline LS Mean (SE)” value [10] was 5.52 (0.74) and the “UCT Post-baseline Mean (SD)” value [10] was 10.03 (4.29). For the same compound, the “UCT change from baseline, Mean” value [10] was 5.65, the “UCT change from baseline, Median” value [10] was 4.00 and the “UCT percent change from baseline, Mean” value [10] was 301.53%. The “UCT percent change from baseline, Median” value [10] was 130.95%, the “UCT change from baseline, Median” value [11] was 8.00 and the “UCT percent change from baseline, Mean” value [11] was 246.67%. The “UCT percent change from baseline, Median” value [11] was 266.67%, the “UCT, Mean” value [11] was 9.20 and the “UCT change from baseline, Mean” value [12] was 8.50. The “UCT change from baseline, Median” value [12] was 8.50, the “UCT percent change from baseline, Mean” value [12] was 283.33% and the “UCT percent change from baseline, Median” value [12] was 283.33%. For the same compound, the “UCT change from baseline, Mean” value [13] was 8.00, the “UCT change from baseline, Median” value [13] was 8.00 and the “UCT percent change from baseline, Mean” value [13] was 3.00%. For the same compound, the “UCT percent change from baseline, Median” value [13] was 3.00%, the “UCT, Mean” value [13] was 5.00 and the “UCT, Median” value [13] was 5.00. The “UCT % Change difference … (95% CI)” value [14] was −44.03 (−169.40, 81.34) %, the “UCT % Change from baseline LS Mean (SE)” value [14] was 95.52 (42.85) % and the “UCT Change difference … (95% CI)” value [14] was −0.89 (−2.79, 1.00). The “UCT Change from baseline LS Mean (SE)” value [14] was 2.44 (0.68), the “UCT Post-baseline Mean (SD)” value [14] was 6.40 (3.11) and the “UCT % Change difference … (95% CI)” value [15] was −48.50 (−174.55, 77.55) %. For the same compound, the “UCT % Change from baseline LS Mean (SE)” value [15] was 94.30 (43.68) %, the “UCT Change difference … (95% CI)” value [15] was −0.88 (−2.74, 0.99) and the “UCT Change from baseline LS Mean (SE)” value [15] was 2.36 (0.66). For the same compound, the “UCT Post-baseline Mean (SD)” value [15] was 6.35 (3.14), the “UCT change from baseline, Mean” value [15] was 2.27 and the “UCT change from baseline, Median” value [15] was 2.00. For the same compound, the “UCT percent change from baseline, Mean” value [15] was 102.47%, the “UCT percent change from baseline, Median” value [15] was 45.00% and the “UCT, Median” value [15] was 6.00. The “UCT change from baseline, Mean” value [16] was 3.00, the “UCT change from baseline, Median” value [16] was 3.00 and the “UCT percent change from baseline, Mean” value [16] was 60.00%. The “UCT percent change from baseline, Median” value [16] was 60.00%, the “UCT, Mean” value [16] was 8.00 and the “UCT, Median” value [16] was 8.00.
